Among the data in patent publication US9546179B2, “Heterocycle amido alkyloxy substituted quinazoline derivative and use thereof” (priority 2011, dated 2017) are IC50 values, retold here.

T1 sequence (P00533 25-1210): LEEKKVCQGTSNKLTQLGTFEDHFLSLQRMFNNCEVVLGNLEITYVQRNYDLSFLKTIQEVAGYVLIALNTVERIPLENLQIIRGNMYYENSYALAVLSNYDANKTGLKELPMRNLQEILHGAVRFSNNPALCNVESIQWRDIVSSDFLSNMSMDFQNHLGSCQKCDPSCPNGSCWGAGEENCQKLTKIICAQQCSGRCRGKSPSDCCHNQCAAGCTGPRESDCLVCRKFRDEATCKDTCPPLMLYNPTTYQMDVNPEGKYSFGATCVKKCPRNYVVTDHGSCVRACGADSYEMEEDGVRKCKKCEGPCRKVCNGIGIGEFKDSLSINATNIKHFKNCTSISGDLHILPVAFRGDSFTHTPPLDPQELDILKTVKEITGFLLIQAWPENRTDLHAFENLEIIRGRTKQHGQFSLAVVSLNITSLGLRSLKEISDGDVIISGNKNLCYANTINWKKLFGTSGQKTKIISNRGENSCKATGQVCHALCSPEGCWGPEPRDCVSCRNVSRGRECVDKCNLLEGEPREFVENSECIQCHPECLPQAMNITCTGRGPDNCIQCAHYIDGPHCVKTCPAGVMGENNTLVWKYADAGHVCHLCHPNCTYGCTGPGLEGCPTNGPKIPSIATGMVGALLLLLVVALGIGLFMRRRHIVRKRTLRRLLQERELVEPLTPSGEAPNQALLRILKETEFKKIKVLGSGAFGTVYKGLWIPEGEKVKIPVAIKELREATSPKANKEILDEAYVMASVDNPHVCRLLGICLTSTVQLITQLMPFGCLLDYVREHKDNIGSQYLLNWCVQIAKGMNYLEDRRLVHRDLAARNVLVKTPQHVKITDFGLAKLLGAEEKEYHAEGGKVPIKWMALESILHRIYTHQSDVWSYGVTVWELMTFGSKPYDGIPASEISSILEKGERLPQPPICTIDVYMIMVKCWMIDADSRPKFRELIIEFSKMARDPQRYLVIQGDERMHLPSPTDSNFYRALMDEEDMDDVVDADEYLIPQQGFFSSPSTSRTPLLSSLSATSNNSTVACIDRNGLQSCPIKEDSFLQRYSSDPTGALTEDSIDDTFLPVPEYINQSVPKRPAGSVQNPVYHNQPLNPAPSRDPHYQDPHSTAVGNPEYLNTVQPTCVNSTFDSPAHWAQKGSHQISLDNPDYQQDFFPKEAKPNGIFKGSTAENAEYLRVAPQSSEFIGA

The assay concerns the target T1, receptor tyrosine kinase EGFR (Homo sapiens, UniProt P00533).
T1 construct: purchased Shanghai 3bio Technology Co., Ltd. Lot No. 4018780925
The experiment in a line: Inhibitory effect on receptor tyrosine kinase EGFR (ELISA, Poly(Glu, Tyr)4:1, PY99 antibody). It counts as biochemical. The note with it: ATP 4 μM, 1 hour at 37° C. The protocol:
Poly(Glu, Tyr)4:1 was diluted into 100 μg/ml by PBS without potassium. Enzyme label plate was coated with 37 μl/well at 37° C. overnight,
The liquid in the wells was removed. The plate was rinsed by T-PBS for 5 minutes, and dried at 37° C. after repeated 3 times.
The testing sample was diluted to the concentration concerned by reaction buffer solution, and added into the wells of the coated enzyme label plate. The concentration diluted should realize 1.0000 μg/ml, 0.1250 μg/ml, 0.0156 μg/ml, 0.00195 μg/ml and 0.00024 μg/ml in the 100 μl reaction.
Adding in ATP solution (4 μM of final concentration) diluted by reaction buffer solution,
Finally, the tyrosine kinase diluted by reaction buffer solution was added, and forming the reaction with 100 μl total volume.
Meanwhile, negative control wells and enzyme-free control wells were prepared. The reaction was kept in the dark wet box for 1 hour at 37° C. The plate was rinsed by T-PBS for three times after the reaction ended, and blocked by 1% BSA […] for 30 min, and then, PY99 antibody (1:1000 diluted by 0.05% PBST with 1% BSA) was added in 100 μl/well. After incubated at 37° C. for 30 minutes, the plate was rinsed by T-PBS for three times, and the goat anti-mouse IgG marked with HRP (1 mg/ml 1:1000 diluted by 0.05% PBST with 1% BSA) was then added in 100 μl/well. After incubated at 37° C. for 30 minutes, the plate was rinsed by T-PBS for three times.
Colorimetric solution OPD was added in 100 μl/well for 20 minutes' reaction in the dark side at the room temperature. Colorimetric substrate solution OPD was the solution of 0.1 mol/L citric acid-disodium hydrogen phosphate buffer (pH 5.0) with 20 mmol/L OPD and 12 mmol/L H2O2 (freshly prepared when using).
50 μl of 2M H2SO4 (2 mol/L sulfuric acid containing 0.1 mol/L sodium sulfate) was added in to terminate the reaction, and the A492 value was read with adjustable wavelength micro late enzyme-labeling instrument VERSAmax.
The inhibition rate of samples is calculated by the following formula: […]
A general note: An ELISA detects its analyte on a solid surface through an enzyme-linked reagent.
For the compound `COc1cc2ncnc(Nc3ccc(F)c(Cl)c3)c2cc1OCCN1CC2(C1)CN(C)C(=O)O2` [Example 61, 4-(3′-chloro-4′-fluorophenylamino)-6-[2-(7-methyl-5-oxa-2,7-diazaspiro[3.4]octane-6-ketone-2-yl)-oxethyl]-7-methoxyquinazoline], the half-maximal inhibitory concentration (IC50) (in general, the midpoint of a concentration-inhibition curve) lay in the range of 0.01 to 0.1 µM.
In the case of `COc1cc2ncnc(Nc3ccc(F)c(Cl)c3)c2cc1OCCN1CC2(COC2)C1` [Example 62, 4-(3′-chloro-4′-fluorophenylamino)-6-[2-(2-oxa-6-azaspiro[3.3]heptane-6-yl)-oxethyl]-7-methoxyquinazoline] it was 0.1 to 1 µM; in that of `COc1cc2ncnc(Nc3ccc(F)c(Cl)c3)c2cc1OCCN1CCC2(CC1)CNC(=O)C2` [Example 63, 4-(3′-chloro-4′-fluorophenylamino)-6-[2-(2,8-diazaspiro[4.5]decane-3-ketone-8-yl)-oxethyl]-7-methoxyquinazoline], 0.1 to 1 µM.
As for `COc1cc2ncnc(Nc3cc(Cl)ccc3F)c2cc1OCCCN1CCC2(CCN(C)C2)C1` (stereo not shown) [Example 64, 4-(5′-chloro-22′-fluorophenylamino)-6-[3-(7-methyl-2,7-diazaspiro[4.4]nonane-2-yl)-propoxy]-7-methoxyquinazoline], the IC50 fell in the range of 0.01 to 0.1 µM.
Turning to `COc1cc2ncnc(Nc3cc(Cl)ccc3F)c2cc1OCCCN1CCC2(COC2)C1` [Example 65], the IC50 was 0.01 to 0.1 µM.
`C#Cc1cccc(Nc2ncnc3cc(OC)c(OCCCN4CCC5(CCN(C)C5)C4)cc23)c1` (stereo not shown) [Example 68, 4-(3′-ethynylphenylamino)-6-[3-(7-methyl-2,7-diazaspiro[4.4]nonyl)-propoxy]-7-methoxyquinazoline] registered an IC50 of 0.01 to 0.1 µM.
In the case of `C#Cc1cccc(Nc2ncnc3cc(OC)c(OCCCN4CCC5(CCNC5=O)C4)cc23)c1` (stereo not shown) [Example 70, 4-(3′-ethynylphenylamino)-6-[3-(2,7-diazaspiro[4.4]-nonane-1-ketone-7-yl)-propoxy]-7-methoxyquinazoline] it was 0.01 to 0.1 µM; in that of `C#Cc1cccc(Nc2ncnc3cc(OC)c(OCCCN4CCC5(CCN(C)C5=O)C4)cc23)c1` (stereo not shown) [Example 71, 4-(3′-ethynylphenylamino)-6-[3-(2-methyl-2,7-diazaspiro[4.4]-nonane-1-ketone-7-yl)-propoxy]-7-methoxyquinazoline], 0.01 to 0.1 µM; in that of `C#Cc1cccc(Nc2ncnc3cc(OC)c(OCCCN4CCC5(CCNC5=O)CC4)cc23)c1` [Example 72, 4-(3′-ethynylphenylamino)-6-[3-(2,8-diazaspiro[4.5]decane-1-ketone-8-yl)-propoxy]-7-methoxyquinazoline], 0.01 to 0.1 µM.
In turn, `C#Cc1cccc(Nc2ncnc3cc(OC)c(OCCCN4CCC5(CC4)CC(=O)N(C)C5)cc23)c1` [Example 73, 4-(3′-ethynylphenylamino)-6-[3-(2-methyl-2,8-diazaspiro[4.5]decane-3-ketone-8-yl)-propoxy]-7-methoxyquinazoline] yielded an IC50 of 0.01 to 0.1 µM.
In the case of `C#Cc1cccc(Nc2ncnc3cc(OC)c(OCCCN4CCC5(CCC(=O)N5)CC4)cc23)c1` [Example 74, 4-(3′-ethynylphenylamino)-6-[3-(1,8-diazaspiro[4.5]decane-2-ketone-8-yl)-propoxy]-7-methoxyquinazoline] it was 0.01 to 0.1 µM.
`C#Cc1cccc(Nc2ncnc3cc(OC)c(OCCCN4CCC5(COC5)C4)cc23)c1` [Example 75, 4-(3′-ethynylphenylamino)-6-[3-(2-oxa-6-azaspiro[3.4]octane-6-yl)-propoxy]-7-methoxyquinazoline]: the half-maximal inhibitory concentration (IC50) was 0.01 to 0.1 µM.
`COc1cc2ncnc(Nc3ccc(F)c(Cl)c3)c2cc1OCCCN1CCC2(CCN(C)C2)C1` (stereo not shown) [Example 76, 4-(3′-chloro-4′-fluorophenylamino)-6-[3-(7-methyl-2,7-diazaspiro[4.4]nonane-2-yl)-propoxy]-7-methoxyquinazoline]: the IC50 lay in the range of 0.01 to 0.1 µM.
For the compound `COc1cc2ncnc(Nc3ccc(F)c(Cl)c3)c2cc1OCCCN1CCC2(CCCN(C(=O)OC(C)(C)C)C2)C1` (stereo not shown) [Example 77, 4-(3′-chloro-4′-4-fluorophenylamino)-6-[3-(7-tertbutyloxycarbonyl-2,7-diazaspiro[4.5]decane-2-yl)-propoxy]-7-methoxyquinazoline], the IC50 is above 1 µM.
Compound `COc1cc2ncnc(Nc3ccc(F)c(Cl)c3)c2cc1OCCCN1CCC2(CC1)CNC(=O)C2` [Example 79] returned an IC50 of 0.0001 to 0.01 µM.
For `COc1cc2ncnc(Nc3ccc(F)c(Cl)c3)c2cc1OCCCN1CCC2(CCNC2=O)C1` (stereo not shown) [Example 80, 4-(3′-chloro-4′-fluorophenylamino)-6-[3-(2,7-diazaspiro[4.4]-nonane-1-ketone-7-yl)-propoxy]-7-methoxyquinazoline] the value was 0.0001 to 0.01 µM; for `COc1cc2ncnc(Nc3ccc(F)c(Cl)c3)c2cc1OCCCN1CCC2(CCN(C)C2=O)C1` (stereo not shown) [Example 81, 4-(3′-chloro-4′-fluorophenylamino)-6-[3-(2-methyl-2,7-diazaspiro[4.4]-nonane-1-ketone-7-yl)-propoxy]-7-methoxyquinazoline], 0.01 to 0.1 µM.
In the case of `COc1cc2ncnc(Nc3ccc(F)c(Cl)c3)c2cc1OCCCN1CCC2(CCNC2=O)CC1` [Example 82, 4-(3′-chloro-4′-fluorophenylamino)-6-[3-(2,8-diazaspiro[4.5]decane-1-ketone-8-yl)-propoxy]-7-methoxyquinazoline] it was 0.01 to 0.1 µM.
For `COc1cc2ncnc(Nc3ccc(F)c(Cl)c3)c2cc1OCCCN1CCC2(CC1)CC(=O)N(C)C2` [Example 83, 4-(3′-chloro-4′-fluorophenylamino)-6-[3-(2-methyl-2,8-diazaspiro[4.5]decane-3-ketone-8-yl)-propoxy]-7-methoxyquinazoline] the value was 0.0001 to 0.01 µM; for `COc1cc2ncnc(Nc3ccc(F)c(Cl)c3)c2cc1OCCCN1CCC2(CCC(=O)N2)CC1` [Example 84, 4-(3′-chloro-4′-fluorophenylamino)-6-[3-(1,8-diazaspiro[4.5]decane-2-ketone-8-yl)-propoxy]-7-methoxyquinazoline], 0.01 to 0.1 µM.
As to `COc1cc2ncnc(Nc3ccc(F)c(Cl)c3)c2cc1OCCCN1CCC2(CC1)CCN(C)C2=O` [Example 85], the IC50 is 0.01 to 0.1 µM.
In the case of `COc1cc2ncnc(Nc3ccc(F)c(Cl)c3)c2cc1OCCCN1CC2(CNC(=O)C2)C1` [Example 86, 4-(3′-chloro-4′-fluorophenylamino)-6-[3-(2,6-diazaspiro[3.4]octane-7-ketone-2-yl)-propoxy]-7-methoxyquinazoline] it was 0.01 to 0.1 µM; in that of `COc1cc2ncnc(Nc3ccc(F)c(Cl)c3)c2cc1OCCCN1CCC2(CC1)CNC(=O)O2` [Example 87, 4-(3′-chloro-4′-fluorophenylamino)-6-[3-(1-oxa-3,8-diazaspiro[4.5]decane-2-ketone-8-yl)-propoxy]-7-methoxyquinazoline], 0.01 to 0.1 µM.
For `COc1cc2ncnc(Nc3ccc(F)c(Cl)c3)c2cc1OCCCN1C[C@@H]2CN(C(=O)OC(C)(C)C)C[C@@H]2C1` [Example 88, 4-(3′-chloro-4′-fluorophenylamino)-6-[3-(5-tertbutyloxycarbonyl-hexahydropyrrolo[3,4-c]pyrrole-2-yl)-propoxy]-7-methoxyquinazoline] the value was above 1 µM; for `COc1cc2ncnc(Nc3ccc(F)c(Cl)c3)c2cc1OCCCN1CCC2(C1)CN(C)C(=O)O2` (stereo not shown) [Example 89, 4-(3′-chloro-4′-fluorophenylamino)-6-[3-[3-methyl-1-oxa-3,7-diazaspiro[4.4]nonane-2-ketone-7-yl)-propoxy]-7-methoxyquinazoline], 0.01 to 0.1 µM.
